In patent US20240002393A1, “SUBSTITUTED BENZO[f][l ,2,4JTRIAZOL0[4,3-a][l ,4J[…] GABA A GAMMA! POSITIVE ALLOSTERIC MODULATORS” (Hoffmann-La Roche Inc., priority 2020, published 2024):
pKi: −log10 of the molar value.

Assays:
[1] = target: human GABAA α2β2γ1 receptor (Homo sapiens (Human), UniProt P47869+Q8N1C3); assay: Radioligand binding assay, [3H]RO7239181 competition, γ1-containing GABAA subtypes; details: for pKi: HEK293F membranes, [3H]RO7239181 20-30 nM, mean of two determinations, read-out: Ki h-GABAA α2β2γ1; for γ2/γ1 Selectivity Ratio: Ki α1β3γ2 (nM)/Ki α2β2γ1 (nM); for LogSel: Log[Ki α1β3γ2 (nM)/Ki α2β2γ1 (nM)]
Procedure: (§1) The affinity of compounds at GABAA γ1 subunit-containing receptors was measured by competition for [^3H]RO7239181 (67.3 Ci/mmol; Roche) binding to membranes from HEK293F cells (ThermoFisher R79007) expressing human (transiently transfected) receptors of composition α5β2γ1, α2β2γ1, α1β2γ1.
(§2) Harvested pellets from HEK293F cells expressing the different GABAA receptor subtypes were resuspended in Mannitol Buffer pH 7.2-7.4 (Mannitol 0.29M, Triethylamine 10 mM, Acetic acid 10 mM, EDTA 1 mM plus protease inhibitors (20 tablets Complete, Roche Diagnostics Cat. No. 05 056 489 001 per liter)), washed two times and then resuspended at 1:10 to 1:15 dilution in the same buffer. Cell disruption was performed by stirring the suspension in a Parr vessel #4637 at 435 psi for 15 minutes, and then the suspensions were centrifuged at 1000×g for 15 minutes at 4° C. (Beckman Avanti J-HC; rotor JS)-4.2). The supernatant (S1) was transferred in a 21 Schott flask and the pellet (P1) was resuspended with Mannitol Buffer up to 175 ml. The resuspended pellet was transferred into a 250 ml Corning centrifugal beaker and centrifuged at 1500×g for 10 minutes at 4° C. (Beckman Avanti J-HC; rotor JS)-4.2). The supernatant (S1) was then transferred in the 21 Schott flask and the pellet was discarded. The supernatants (S1) were centrifuged in 500 ml Beckman polypropylene centrifugal beaker at 15,000×g for 30 minutes at 4° C. (Beckman Avanti J-20 XP; rotor JLA-10.500). The pellet (P2) was resuspended with Mannitol Buffer 1:1 and frozen at −80° C. The supernatant (S2) was centrifuged in 100 ml Beckman polypropylene centrifugal tubes at 48000×g for 50 minutes at […] (Beckman Avanti J-20 XP; rotor JA-18). The supernatant (S3) was discarded and the pellet (P3) was resuspended with 1:1 Mannitol Buffer. The P2 and P3 protein concentration was determined with the BIORAD Standard assay method with bovine serum albumin as standard and measured on the NANO-Drop 1000. The membrane suspension was aliquots (500 μl per tube) and stored at −80° C. until required.
(§3) Membrane homogenates were resuspended and polytronised (Polytron PT1200E Kinematica AG) in Potassium Phosphate 10 mM, KCl 100 mM binding buffer at pH 7.4 to a final assay concentration determined with a previous experiment.
(§4) Assays were incubated to equilibrium for 1 hour at 4° C. and then, membranes were filtered onto unifilter (96-well white microplate with bonded GF/C filters preincubated 20-50 minutes in 0.3% Polyethylenimine) with a Filtermate 196 harvester (Packard BioScience) and washed 4 times with cold Potassium Phosphate 10 mM pH 7.4, KCl 100 mM binding buffer. After drying, filter-retained radioactivity was detected by liquid scintillation counting. K, values were calculated using Excel-Fit (Microsoft) and are the means of two determinations.

[2] = target: human GABAA α1β2γ1 receptor (Homo sapiens (Human), UniProt P14867+Q8N1C3); assay: as above; details: HEK293F membranes, [3H]RO7239181 20-30 nM, mean of two determinations
Procedure: as §1, §2, §3, §4

[3] = target: human GABAA α1β3γ2 receptor (Homo sapiens (Human), UniProt P14867+P18507); assay: Radioligand binding assay, [3H]Flumazenil competition, γ2-containing GABAA subtypes; details: HEK293F membranes, [3H]Flumazenil 1 nM, mean of two determinations; read-out: Ki h-GABAA α1β3γ2
Procedure: The affinity of compounds at GABAA γ2 subunit-containing receptors was measured by competition for [^3H]Flumazenil (81.1 Ci/mmol; Roche) binding to HEK293F cells expressing human (transiently transfected) receptors of composition α1β3γ2.
Harvested pellets from HEK293F cells expressing the different GABAA γ2 receptor subtypes were resuspended in Mannitol Buffer pH 7.2-7.4 and processed as described above for the cells expressing the GABAA γ1 subunit-containing receptors.
Assays were incubated to equilibrium for 1 hour at 4° C. and harvested onto GF/C uni-filters (Packard) by filtration using a Packard harvester and washing with ice-cold wash buffer (50 mM Tris; pH 7.5). After drying, filter-retained radioactivity was detected by liquid scintillation counting. Ki values were calculated using Exel-Fit (Microsoft) and are the means of two determinations.

[4] = target: human GABAA α5β2γ1 receptor (Homo sapiens (Human), UniProt P31644+Q8N1C3); assay: Radioligand binding assay, [3H]RO7239181 competition, γ1-containing GABAA subtypes; details: HEK293F membranes, mean of two determinations
Procedure: as §1, with “α1β2γ1. For better protein expression of the α2 subunit-containing receptors, the 28 amino acid long signal peptide (Met1 to Ala28) of the human GABAA α2 subunit was substituted by the 31 amino acid long signal peptide (Met1 to Ser31) of human GABAA α5 subunit.” for “α1β2γ1.”
as §2, §3
as §4, with “Radioligand binding assays were carried out in a volume of 200 µL (96-well plates) which contained 100 μL of cell membranes, [^3H]RO7239181 at a concentration of 1.5 nM (α5β2γ1) or 20-30 nM (α1β2γ1, 2β2γ1) and the test compound in the range of [0.3-10000]×10^−9 M. Nonspecific binding was defined by 10×10^−6 (α5β2γ1) and 30×10^−6 M RO7235136 and typically represented less than 5% (α5β2γ1) and less than 20% (α1β2γ1, α2β2γ1) of the total binding. Assays” for “Assays”
Representative test results, obtained by the above described assay measuring binding affinity to HEK293 cells expressing human (h) receptors, are shown in the Table 1.

| SMILES | pKi [1] | γ2/γ1 Selectivity Ratio [1] | LogSel [1] | pKi [2] | pKi [3] | pKi [4] |
| --- | --- | --- | --- | --- | --- | --- |
| C[C@@H]1N=C(c2c(F)cccc2F)c2c(ccc(Cl)c2Cl)-n2c1n[nH]c2=O [Example 64, (4S)-7,8-dichloro-6-(2,6-difluorophenyl)-4-methyl-2,4-dihydro-[1,2,4]triazolo[4,3-a][1,4]benzodiazepin-1-one] | 7.88 | 45.8 | 1.66 | 7.94 | 6.22 | 9.30 |
| C[C@@H]1N=C(c2ncccc2F)c2c(ccc(Cl)c2Cl)-n2c(-c3ccncn3)nnc21 [Example 66, (4S)-7,8-dichloro-6-(3-fluoro-2-pyridyl)-4-methyl-1-pyrimidin-4-yl-4H-[1,2,4]triazolo[4,3-a][1,4]benzodiazepine] | 7.01 | 33.5 | 1.53 | 6.64 | 5.48 | 8.10 |
| C[C@@H]1N=C(c2ncccc2F)c2c(ccc(Cl)c2Cl)-n2c(-c3cnn(C)c3)nnc21 [Example 67, (4S)-7,8-dichloro-6-(3-fluoro-2-pyridyl)-4-methyl-1-(1-methylpyrazol-4-yl)-4H-[1,2,4]triazolo[4,3-a][1,4]benzodiazepine] | 7.58 | 53.5 | 1.73 | 6.72 | 5.85 | 8.49 |
| C[C@@H]1N=C(c2ncccc2F)c2c(ccc(Cl)c2Cl)-n2c(C3CC3)nnc21 [Example 68, (4S)-7,8-dichloro-1-cyclopropyl-6-(3-fluoro-2-pyridyl)-4-methyl-4H-[1,2,4]triazolo[4,3-a][1,4]benzodiazepine] | 7.41 | 27.4 | 1.44 | 6.44 | 5.97 | 8.15 |
| C[C@@H]1N=C(c2c(F)cccc2F)c2c(ccc(Cl)c2Br)-n2c(-c3cccnn3)nnc21 [Example 73, (4S)-7-bromo-8-chloro-6-(2,6-difluorophenyl)-4-methyl-1-(pyridazin-3-yl)-4H-benzo[f][1,2,4]triazolo[4,3-a][1,4]diazepine] | 8.06 | 87.5 | 1.94 | 7.63 | 6.11 | 8.70 |
| C[C@@H]1N=C(c2c(F)cccc2F)c2c(ccc(Cl)c2Br)-n2c(-c3ccncn3)nnc21 [Example 74, (4S)-7-bromo-8-chloro-6-(2,6-difluorophenyl)-4-methyl-1-pyrimidin-4-yl-4H-[1,2,4]triazolo[4,3-a][1,4]benzodiazepine] | 7.76 | 107.6 | 2.03 | 7.55 | 5.73 | 8.59 |
| Cc1nnc2n1-c1ccc(Br)c(Cl)c1C(c1c(F)cccc1F)=N[C@H]2C [Example 75, (4S)-8-bromo-7-chloro-6-(2,6-difluorophenyl)-1,4-dimethyl-4H-[1,2,4]triazolo[4,3-a][1,4]benzodiazepine] | 8.28 | 38.0 | 1.58 | 8.08 | 6.69 | 9.10 |
| C[C@@H]1N=C(c2c(F)cccc2F)c2c(ccc(Cl)c2Br)-n2c(-c3cnn(C)c3)nnc21 [Example 76, (4S)-7-bromo-8-chloro-6-(2,6-difluorophenyl)-4-methyl-1-(1-methylpyrazol-4-yl)-4H-[1,2,4]triazolo[4,3-a][1,4]benzodiazepine] | 7.60 | 21.3 | 1.33 | 7.35 | 6.28 | 8.44 |
| Cc1nnc2n1-c1ccc(Cl)c(Br)c1C(c1c(F)cccc1F)=N[C@H]2C [Example 80, (4S)-7-bromo-8-chloro-6-(2,6-difluorophenyl)-1,4-dimethyl-4H-[1,2,4]triazolo[4,3-a][1,4]benzodiazepine] | 7.63 | 45.3 | 1.66 | 7.37 | 5.97 | 8.52 |
| C[C@@H]1N=C(c2c(F)cccc2F)c2c(ccc(Cl)c2Br)-n2c(-c3ccn(C)n3)nnc21 [Example 81, (4S)-7-bromo-8-chloro-6-(2,6-difluorophenyl)-4-methyl-1-(1-methylpyrazol-3-yl)-4H-[1,2,4]triazolo[4,3-a][1,4]benzodiazepine] | 7.44 | 43.0 | 1.63 | 7.00 | 5.81 | 8.37 |
| Cc1nnc2n1-c1ccc(Cl)c(Cl)c1C(c1c(F)cccc1F)=N[C@H]2C [Example 82, (4S)-7,8-dichloro-6-(2,6-difluorophenyl)-1,4-dimethyl-4H-[1,2,4]triazolo[4,3-a][1,4]benzodiazepine] | 7.97 | 24.6 | 1.39 | 7.89 | 6.58 | 9.22 |
| C[C@@H]1N=C(c2ncccc2F)c2c(ccc(Br)c2Cl)-n2c(C3CC3)nnc21 [Example 83, (4S)-8-bromo-7-chloro-1-cyclopropyl-6-(3-fluoro-2-pyridyl)-4-methyl-4H-[1,2,4]triazolo[4,3-a][1,4]benzodiazepine] | 7.63 | 36.8 | 1.57 | 6.89 | 6.07 | 8.57 |
| C[C@@H]1N=C(c2ncccc2F)c2c(ccc(Br)c2Cl)-n2cnnc21 [Example 84, (4S)-8-bromo-7-chloro-6-(3-fluoro-2-pyridyl)-4-methyl-4H-[1,2,4]triazolo[4,3-a][1,4]benzodiazepine] | 7.15 | 16.9 | 1.23 | 7.01 | 5.92 | 8.19 |
